# Measured values reported in patent US9988400B2 (Genentech, Inc., priority 2013, dated 2018).
# Biological target: T1, HEK cells stably transfected with tetracycline inducible hNR1 and hNR2A (Homo sapiens, UniProt Q05586+Q12879)
# T1 construct: expressed in transfected cells; host or cells: HEK cells, stably transfected, tetracycline/doxycycline inducible
# Assay: Assay 1: Cell-Based Assay, cytosolic calcium response to positive allosteric modulators (with 30 μM glycine and 300 nM L-glutamate, EC30)
# Conditions: Table 3; cytosolic calcium response, with 30 μM glycine and 300 nM L-glutamate (EC30); — = no plateau was reached
# Procedure, shortened: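 Cells induced 24 h with 7.5 μg mL^−1 doxycycline plus 500 μM (+)-ketamine, loaded 60 min at 37 °C with calcium dye in Mg-free HBSS (1.8 mM Ca, probenecid, 10 μM (+)-ketamine, pH 7.15). Peak RFU over 5 min after compound addition, scaled to 100 μM L-glutamate (100%) and 0 μM (0%); four-parameter Hill fit for EC50, max % if no plateau.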
# T1 sequence (Q12879 23-1464, other chains not shown): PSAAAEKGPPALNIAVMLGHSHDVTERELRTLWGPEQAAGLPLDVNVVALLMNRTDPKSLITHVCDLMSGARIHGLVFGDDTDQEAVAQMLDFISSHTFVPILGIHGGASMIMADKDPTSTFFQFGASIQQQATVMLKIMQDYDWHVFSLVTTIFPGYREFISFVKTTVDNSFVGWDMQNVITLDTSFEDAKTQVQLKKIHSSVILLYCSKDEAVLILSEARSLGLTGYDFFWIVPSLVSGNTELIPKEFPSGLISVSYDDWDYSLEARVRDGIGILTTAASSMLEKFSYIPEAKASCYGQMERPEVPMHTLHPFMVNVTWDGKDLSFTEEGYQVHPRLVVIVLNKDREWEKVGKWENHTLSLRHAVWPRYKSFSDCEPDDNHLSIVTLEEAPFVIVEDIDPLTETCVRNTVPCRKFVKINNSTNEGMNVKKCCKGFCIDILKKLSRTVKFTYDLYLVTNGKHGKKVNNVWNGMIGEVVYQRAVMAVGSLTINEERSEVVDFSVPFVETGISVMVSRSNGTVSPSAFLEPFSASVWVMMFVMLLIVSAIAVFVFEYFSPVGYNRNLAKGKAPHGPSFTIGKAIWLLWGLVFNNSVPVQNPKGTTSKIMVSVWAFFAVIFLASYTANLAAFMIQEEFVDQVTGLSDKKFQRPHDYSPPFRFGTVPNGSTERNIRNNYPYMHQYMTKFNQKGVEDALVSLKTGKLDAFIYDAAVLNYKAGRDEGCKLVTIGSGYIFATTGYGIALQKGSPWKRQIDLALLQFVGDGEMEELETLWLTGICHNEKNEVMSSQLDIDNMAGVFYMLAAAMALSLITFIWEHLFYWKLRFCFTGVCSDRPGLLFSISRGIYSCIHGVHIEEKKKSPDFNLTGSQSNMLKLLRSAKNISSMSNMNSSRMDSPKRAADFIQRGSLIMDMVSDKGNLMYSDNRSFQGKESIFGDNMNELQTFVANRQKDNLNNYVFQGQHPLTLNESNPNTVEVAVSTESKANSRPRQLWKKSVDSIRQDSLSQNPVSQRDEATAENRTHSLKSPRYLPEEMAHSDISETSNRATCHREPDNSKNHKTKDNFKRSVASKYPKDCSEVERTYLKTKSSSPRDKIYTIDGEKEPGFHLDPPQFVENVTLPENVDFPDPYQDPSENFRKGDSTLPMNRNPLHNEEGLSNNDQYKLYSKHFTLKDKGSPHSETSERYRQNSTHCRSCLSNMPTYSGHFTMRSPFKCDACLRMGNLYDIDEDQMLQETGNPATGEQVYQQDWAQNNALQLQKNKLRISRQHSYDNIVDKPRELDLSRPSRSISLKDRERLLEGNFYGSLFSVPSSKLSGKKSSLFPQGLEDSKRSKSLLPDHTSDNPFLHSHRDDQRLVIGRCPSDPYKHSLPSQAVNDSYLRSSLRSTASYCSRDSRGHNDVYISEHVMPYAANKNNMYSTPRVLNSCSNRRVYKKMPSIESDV
row,EC50,SMILES
1,864 nM,"CCNC(=O)c1c(OCC)sc2nc(Cn3nc(C(F)(F)F)cc3Cl)cc(=O)n12 [compound 175, 7-[[5-chloro-3-(trifluoromethyl)pyrazol-1-yl]methyl]-2-ethoxy-N-ethyl-5-oxo-thiazolo[3,2-a]pyrimidine-3-carboxamide]"
2,8920 nM,"CCNC(=O)c1c(OCC)sc2nc(Cn3nc(Cl)cc3C(F)(F)F)cc(=O)n12 [compound 176, 7-[[3-chloro-5-(trifluoromethyl)pyrazol-1-yl]methyl]-2-ethoxy-N-ethyl-5-oxo-thiazolo[3,2-a]pyrimidine-3-carboxamide]"
3,123 nM,"Cc1sc2nc(Cn3nc(C(F)(F)F)cc3Cl)cc(=O)n2c1C(=O)C(C)C [compound 177, 7-[[5-chloro-3-(trifluoromethyl)pyrazol-1-yl]methyl]-2-methyl-3-(2-methylpropanoyl)thiazolo[3,2-a]pyrimidin-5-one]"
4,354 nM,"Cc1sc2nc(Cn3nc(Cl)cc3C(F)(F)F)cc(=O)n2c1C(=O)C(C)C [compound 178, 7-[[3-chloro-5-(trifluoromethyl)pyrazol-1-yl]methyl]-2-methyl-3-(2-methylpropanoyl)thiazolo[3,2-a]pyrimidin-5-one]"
5,698 nM,"CC[C@@H](C)NC(=O)c1c(C)sc2nc(Cc3cccc(C(F)(F)F)c3F)cc(=O)n12 [compound 179, 7-[[2-fluoro-3-(trifluoromethyl)phenyl]methyl]-2-methyl-N-[(1R)-1-methylpropyl]-5-oxo-thiazolo[3,2-a]pyrimidine-3-carboxamide]"
6,2940 nM,"CC[C@H](C)NC(=O)c1c(C)sc2nc(Cc3cccc(C(F)(F)F)c3F)cc(=O)n12 [compound 180, 7-[[2-fluoro-3-(trifluoromethyl)phenyl]methyl]-2-methyl-N-[(1S)-1-methylpropyl]-5-oxo-thiazolo[3,2-a]pyrimidine-3-carboxamide]"

# Continued, compound first:
row,SMILES,EC50
1,"O=c1cc(Cn2nc(Cl)cc2C(F)(F)F)nc2sc(C(F)(F)F)c(-c3cncnc3)n12 [compound 172, 7-[[3-chloro-5-(trifluoromethyl)pyrazol-1-yl]methyl]-3-pyrimidin-5-yl-2-(trifluoromethyl)thiazolo[3,2-a]pyrimidin-5-one]",27600 nM
2,"O=c1cc(Cn2nc(Cl)cc2C(F)(F)F)nc2sc(C(F)(F)F)c(-c3cccnc3)n12 [compound 173, 7-[[3-chloro-5-(trifluoromethyl)pyrazol-1-yl]methyl]-3-(3-pyridyl)-2-(trifluoromethyl)thiazolo[3,2-a]pyrimidin-5-one]",24700 nM
3,"CCNC(=O)c1c(OCC(F)(F)F)sc2nc(Cn3nc(C(F)(F)F)cc3Cl)cc(=O)n12 [compound 174, 7-[[5-chloro-3-(trifluoromethyl)pyrazol-1-yl]methyl]-N-ethyl-5-oxo-2-(2,2,2-trifluoroethoxy)thiazolo[3,2-a]pyrimidine-3-carboxamide]",1670 nM
4,"Cc1sc2nc(CN(C)c3ccc(F)cn3)cc(=O)n2c1C1CC1CO (stereo not shown) [compound 182, 7-[[(5-fluoro-2-pyridyl)-methyl-amino]methyl]-3-[2-(hydroxymethyl)cyclopropyl]-2-methyl-thiazolo[3,2-a]pyrimidin-5-one]",175 nM
5,"COCc1c(C)sc2nc(Cn3nc(C(F)(F)F)cc3Cl)cc(=O)n12 [compound 183, 7-[[5-chloro-3-(trifluoromethyl)pyrazol-1-yl]methyl]-3-(methoxymethyl)-2-methyl-thiazolo[3,2-a]pyrimidin-5-one]",5290 nM
6,"O=c1cc(Cn2nc(C(F)(F)F)cc2Cl)nc2sc(C(F)(F)F)c(C3CC3)n12 [compound 184, 7-[[5-chloro-3-(trifluoromethyl)pyrazol-1-yl]methyl]-3-cyclopropyl-2-(trifluoromethyl)thiazolo[3,2-a]pyrimidin-5-one]",9990 nM
7,"Cc1sc2nc(Cn3nc(C(F)(F)F)cc3Cl)cc(=O)n2c1CS(C)(=O)=O [compound 185, 7-[[5-chloro-3-(trifluoromethyl)pyrazol-1-yl]methyl]-2-methyl-3-(methylsulfonylmethyl)thiazolo[3,2-a]pyrimidin-5-one]",17800 nM
